Results taken from ChEMBL document CHEMBL3603754, “Mitochondria and DNA Targeting of 5,10,15,20-Tetrakis(7-sulfonatobenzo[b]thiophene) Porphyrin-Induced Photodynamic Therapy via Intrinsic and Extrinsic Apoptotic Cell Death” (J Med Chem, 2015).
The source made the active and inactive calls. The calls are words filed in the database; no cut-off is given here.

Assays:
MCF7 [1] = assay: Photo-toxicity in human MCF7 cells treated for 24 hrs followed by irradiated with 660 nm of diode laser light at 50mW for 30 mins measured after 24 hrs by MTT assay; format: functional, cell-based; details: MCF7, light or radiation study
[2] = Intracellular uptake in human MCF7 cell lysosomes at 10 uM after 4 hrs using Hoechst staining by fluorescence microscopic analysis; format: ADME, cell-based, Lysosome; details: mcf7, 4 h
MCF7 [3] = assay: Cellular uptake in human MCF7 cells assessed as increase of intracellular fluorescence after 20 mins using alexa fluor 488, phalloidin 488/525, mito-tracker 490/516 staining by fluorescence microscopic analysis; format: ADME, cell-based; details: mcf7, 20 min
MCF7 [4] = assay: (§1) Induction of extrinsic apoptosis in human MCF7 cells assessed as increase of […] level at 6 uM treated for 1 hr followed by irradiated with 660 nm of diode laser light at 50mW for 30 mins measured after 45 mins using (z-IETD)2-Rh110 by fluorescence assay in presence of caspase-8 inhibitor Z-IETD-FMK; format: functional, cell-based
MCF7 [5] = assay: Induction of extrinsic apoptosis in human MCF7 cells assessed as increase of casepase-3 level at 6 uM treated for 1 hr followed by irradiated with 660 nm of diode laser light at 50mW for 30 mins measured after 45 mins using (z-DEVD)2-Magic Red by fluorescence assay; format: functional, cell-based
MCF7 [6] = assay: Dark toxicity in human MCF7 cells up to 40 uM after 24 hrs by MTT assay; format: cell-based; details: mcf7, 24 h
MCF7 [7] = assay: Induction of mitochondrial membrane disruption in human MCF7 cells assessed as calcein-AM accumulation in cytosol treated for 1 hr followed by irradiated with 660 nm of diode laser light at 50mW for 30 mins measured after 45 mins by fluorescence assay; format: functional, cell-based
[8] = Intracellular uptake in human MCF7 cell mitochondria at 10 uM after 4 hrs using Hoechst staining by fluorescence microscopic analysis; format: ADME; details: mcf7, 4 h
MCF7 [9] = assay: Induction of mitochondrial membrane disruption in human MCF7 cells assessed as calcein-AM accumulation in mitochondria treated for 1 hr followed by irradiated with 660 nm of diode laser light at 50mW for 30 mins measured after 45 mins by fluorescence assay; format: functional, cell-based
MCF7 [10] = assay: Cellular uptake in human MCF7 cells assessed as increase of intracellular fluorescence up to 60 mins using alexa fluor 488, phalloidin 488/525, mito-tracker 490/516 staining by fluorescence microscopic analysis; format: ADME, cell-based; details: mcf7, 1 h
[11] = Intracellular uptake in human MCF7 cell F-actin filament at 10 uM after 4 hrs using Hoechst staining by fluorescence microscopic analysis; format: ADME, cell-based; details: mcf7, 4 h
MCF7 [12] = assay: Induction of extrinsic apoptosis in human MCF7 cells assessed as increase of casepase-3 level at 3 to 5 uM treated for 1 hr followed by irradiated with 660 nm of diode laser light at 50mW for 30 mins measured after 45 mins using (z-DEVD)2-Magic Red by fluorescence assay; format: functional, cell-based
MCF7 [13] = assay: Induction of mitochondrial membrane disruption in human MCF7 cells assessed as calcein-AM accumulation in mitochondria at 1 to 3 uM treated for 1 hr followed by irradiated with 660 nm of diode laser light at 50mW for 30 mins measured after 45 mins by fluorescence assay; format: functional, cell-based
MCF7 [14] = assay: Induction of extrinsic apoptosis in human MCF7 cells assessed as increase of casepase-3 level at 5 uM treated for 1 hr followed by irradiated with 660 nm of diode laser light at 50mW for 30 mins measured after 45 mins using (z-DEVD)2-Magic Red by fluorescence assay in presence of caspase-2 inhibitor; format: functional, cell-based
MCF7 [15] = assay: Induction of extrinsic apoptosis in human MCF7 cells assessed as increase of […] level at 6 uM treated for 1 hr followed by irradiated with 660 nm of diode laser light at 50mW for 30 mins measured after 45 mins using (z-IETD)2-Rh110 by fluorescence assay; format: functional, cell-based
MCF7 [16] = assay: Induction of extrinsic apoptosis in human MCF7 cells assessed as increase of casepase-3 level at 5 uM treated for 1 hr followed by irradiated with 660 nm of diode laser light at 50mW for 30 mins measured after 45 mins using (z-DEVD)2-Magic Red by fluorescence assay; format: functional, cell-based
MCF7 [17] = assay: Induction of intrinsic apoptosis in human MCF7 cells assessed as increase of casepase-9 level at 3 to 5 uM treated for 1 hr followed by irradiated with 660 nm of diode laser light at 50mW for 30 mins measured after 45 mins using (Ac-LEHD)2-Rh110 by fluorescence assay in presence of caspase-2 inhibitor; format: functional, cell-based
[18] = Intracellular uptake in human MCF7 cell mitochondria at 10 uM after 4 hrs using mitotracker green staining by fluorescence microscopic analysis; format: ADME; details: mcf7, 4 h
[19] = Intracellular uptake in human MCF7 cell nucleus at 10 uM after 4 hrs using Hoechst staining by fluorescence microscopic analysis; format: ADME, cell-based; details: mcf7, 4 h
MCF7 [20] = assay: Cellular uptake in human MCF7 cells assessed as increase of intracellular fluorescence after 1 hr using alexa fluor 488, phalloidin 488/525, mito-tracker 490/516 staining by FACS analysis relative to control; format: ADME, cell-based; details: mcf7, 1 h
MCF7 [21] = assay: as §1, with “(z-DEVD)2-Magic Red” for “(z-IETD)2-Rh110”; format: functional, cell-based
MCF7 [22] = assay: Induction of DNA fragmentation in human MCF7 cell nucleus treated at 5 uM followed by irradiated with 660 nm of diode laser light at 50mW for 30 mins by DNA ladder assay; format: functional, cell-based
MCF7 [23] = assay: Induction of ROS production in human MCF7 cells treated for 1 hr followed by irradiated with 660 nm of diode laser light at 50mW for 30 mins using DCFDA by fluorescence microscopic analysis; format: functional, cell-based
MCF7 [24] = assay: Induction of intrinsic apoptosis in human MCF7 cells assessed as increase of casepase-9 level at 3 to 5 uM treated for 1 hr followed by irradiated with 660 nm of diode laser light at 50mW for 30 mins measured after 45 mins using (Ac-LEHD)2-Rh110 by fluorescence assay; format: functional, cell-based

## O=S(=O)(O)c1ccc(-c2c3nc(c(-c4ccc(S(=O)(=O)O)cc4)c4ccc([nH]4)c(-c4ccc(S(=O)(=O)O)cc4)c4nc(c(-c5ccc(S(=O)(=O)O)cc5)c5ccc2[nH]5)C=C4)C=C3)cc1
MCF7 [1]
  IC50: 11.8 µM
[2]
  Drug uptake: Active

## O=S(=O)([O-])c1cccc2cc(-c3c4nc(c(-c5cc6cccc(S(=O)(=O)[O-])c6s5)c5ccc([nH]5)c(-c5cc6cccc(S(=O)(=O)[O-])c6s5)c5nc(c(-c6cc7cccc(S(=O)(=O)[O-])c7s6)c6ccc3[nH]6)C=C5)C=C4)sc12.[Na+].[Na+].[Na+].[Na+]
MCF7 [3]
  Drug uptake: Active
MCF7 [4]
  Activity: inactive
MCF7 [5]
  Activity: Active
MCF7 [6]
  Activity: Non-toxic
MCF7 [7]
  Activity: Dose-dependent effect
[8]
  Drug uptake: Active
MCF7 [9]
  Activity: Dose-dependent effect
MCF7 [10]
  Drug uptake: Active
[11]
  Drug uptake: Not Active
MCF7 [12]
  Activity: Active
MCF7 [13]
  Activity: Active
MCF7 [14]
  Activity: inactive
MCF7 [15]
  Activity: Active
MCF7 [16]
  Activity: Active
MCF7 [17]
  Activity: inactive
[18]
  Drug uptake: Active
[19]
  Drug uptake: Active
MCF7 [20]
  fold change (FC): 3
MCF7 [21]
  Activity: inactive
MCF7 [22]
  Activity: Active
MCF7 [1]
  IC50: 5 µM
[2]
  Drug uptake: Not Active
MCF7 [23]
  Activity: Dose-dependent effect
MCF7 [24]
  Activity: Active
